Source: patent US20250092016A1, “COMPOUNDS AND COMPOSITIONS FOR THE TREATMENT OF CORONAVIRAL RELATED DISEASES” (priority 2021, published 2025)

Target: SARS-CoV-2 main protease (M^pro) (Severe acute respiratory syndrome coronavirus 2, UniProt P0DTD1)
Experiment: Rapid-Fire MS Biochemical Assay measuring Mpro activity (5 nM Mpro)
Details: Table 1B, Mpro inhibition, 5 μM substrate peptide, 120 min, read-out: Rapid-Fire Assay IC50

Compound	IC50 [µM]
N#C[C@H]1CN(C2CC(C(F)(F)F)C2)C(=O)N1c1cncc2ccccc12 (mixture of isomers) [Compound 45, (R)-3-(isoquinolin-4-yl)-2-oxo-1-(3-(trifluoromethyl)cyclobutyl)imidazolidine-4-carbonitrile]	> 1
COc1cc(C(F)(F)F)ccc1N1CC(C#N)N(c2cncc3ccccc23)C1=O (racemic) [Compound 12, 3-(isoquinolin-4-yl)-1-(2-methoxy-4-(trifluoromethyl)phenyl)-2-oxoimidazolidine-4-carbonitrile]	0.02 to 0.2
COc1ccc(C#N)cc1N1CC(C#N)N(c2cncc3ccccc23)C1=O (racemic) [Compound 15, 1-(5-cyano-2-methoxyphenyl)-3-(isoquinolin-4-yl)-2-oxoimidazolidine-4-carbonitrile]	< 0.02
COc1cc(C#N)ccc1N1CC(C#N)N(c2cncc3ccccc23)C1=O (racemic) [Compound 19, 1-(4-cyano-2-methoxyphenyl)-3-(isoquinolin-4-yl)-2-oxoimidazolidine-4-carbonitrile]	0.2 to 1
N#Cc1ccc(Cl)cc1N1CC(C#N)N(c2cncc3ccccc23)C1=O (racemic) [Compound 20, 1-(5-chloro-2-cyanophenyl)-3-(isoquinolin-4-yl)-2-oxoimidazolidine-4-carbonitrile]	< 0.02
N#CC1CN(C2CC(F)(F)C2)C(=O)N1c1cncc2ccccc12 (racemic) [Compound 27, 1-(3,3-difluorocyclobutyl)-3-(isoquinolin-4-yl)-2-oxoimidazolidine-4-carbonitrile]	0.02 to 0.2
N#CC1CN(C2CC(O)(C(F)(F)F)C2)C(=O)N1c1cncc2ccccc12 (racemic) [Compound 28, 1-(3-hydroxy-3-(trifluoromethyl)cyclobutyl)-3-(isoquinolin-4-yl)-2-oxoimidazolidine-4-carbonitrile]	0.02 to 0.2
N#CC1CN(c2cccc(Cl)c2)C(=O)N1c1cncc2ccc(C(=O)O)cc12 (racemic) [Compound 33, 4-(3-(3-chlorophenyl)-5-cyano-2-oxoimidazolidin-1-yl)isoquinoline-6-carboxylic acid]	< 0.02
CS(=O)(=O)c1ccc2cncc(N3C(=O)N(c4cccc(Cl)c4)CC3C#N)c2c1 (racemic) [Compound 37, 1-(3-chlorophenyl)-3-(6-(methylsulfonyl)isoquinolin-4-yl)-2-oxoimidazolidine-4-carbonitrile]	< 0.02
N#CC1CN(c2ccnc(C(F)(F)F)c2)C(=O)N1c1cncc2ccccc12 (racemic) [Compound 57, 3-(isoquinolin-4-yl)-2-oxo-1-(2-(trifluoromethyl)pyridin-4-yl)imidazolidine-4-carbonitrile]	< 0.02
COc1cc(Cl)cnc1N1CC(C#N)N(c2cncc3ccccc23)C1=O (racemic) [Compound 58, 1-(5-chloro-3-methoxypyridin-2-yl)-3-(isoquinolin-4-yl)-2-oxoimidazolidine-4-carbonitrile]	0.2 to 1
N#Cc1cc(Cl)ccc1N1CC(C#N)N(c2cncc3ccccc23)C1=O (racemic) [Compound 60, 1-(4-chloro-2-cyanophenyl)-3-(isoquinolin-4-yl)-2-oxoimidazolidine-4-carbonitrile]	0.02 to 0.2
CC(C)n1cc(N2CC(C#N)N(c3cncc4ccccc34)C2=O)cn1 (racemic) [Compound 64, 1-(1-isopropyl-1H-pyrazol-4-yl)-3-(isoquinolin-4-yl)-2-oxoimidazolidine-4-carbonitrile]	0.02 to 0.2
Cn1cc(N2CC(C#N)N(c3cncc4ccccc34)C2=O)cn1 (racemic) [Compound 65, 3-(isoquinolin-4-yl)-1-(1-methyl-1H-pyrazol-4-yl)-2-oxoimidazolidine-4-carbonitrile]	0.2 to 1
N#CC1CN(c2ccc(F)cc2F)C(=O)N1c1cncc2ccccc12 (racemic) [Compound 66, 1-(2,4-difluorophenyl)-3-(isoquinolin-4-yl)-2-oxoimidazolidine-4-carbonitrile]	0.02 to 0.2
